Measured values taken from patent publication EP4219453A1 (Sichuan Kelun-Biotech Biopharmaceutical Co., Ltd., priority 2020, dated 2022).

Legend:
[1] = molecular target: TGFβR2 (Homo sapiens, UniProt P37173); assay: In vitro enzymatic activity inhibition test (TGFβR2), ADP-Glo Kinase Detection Kit; assay type: biochemical; conditions: MBP substrate, calculated from percent inhibition at 1000nM, 100nM, 10nM
Procedure: Test Example 2: In vitro enzymatic activity inhibition test (TGFβR2).
(§1) Experimental method: According to the instructions of ADP-Glo™ Kinase Detection Kit (Promega), the inhibitory effect of the compounds of the present invention on the enzymatic activity of TGFβR2 was determined, and the steps were as follows: TGFβR2 enzyme were pre-incubated with different concentrations of test compounds (1000nM, 100nM, 10nM) at 30°C for 30 min, myelin basic protein (MBP) and adenosine triphosphate (ATP) were added to initiate the reaction. The incubation was performed at 30°C for 3 h, followed by an addition of ADP-Glo™ reagent and incubated at room temperature for 90 min, kinase detection reagent was then added. The chemiluminescence signal values were detected after incubation at room temperature for another 30 min.
(§2) When the percent inhibition was between 30% and 80%, the median inhibitory concentration (IC50) or range of the compound was calculated according to the following formula: IC50 = X × (1 - percent inhibition rate (%)) / percent inhibition rate (%), wherein X is the concentration of the compound at which the inhibition rate is between 30% and 80%.

[2] = molecular target: T1, TGFβR1 (Homo sapiens, UniProt P36897); assay: In vitro enzymatic activity inhibition test (TGFβR1), ADP-Glo Kinase Detection Kit; assay type: biochemical; conditions: calculated from percent inhibition at 1000 nM, 100 nM, 10 nM
T1 sequence (P36897 34-503): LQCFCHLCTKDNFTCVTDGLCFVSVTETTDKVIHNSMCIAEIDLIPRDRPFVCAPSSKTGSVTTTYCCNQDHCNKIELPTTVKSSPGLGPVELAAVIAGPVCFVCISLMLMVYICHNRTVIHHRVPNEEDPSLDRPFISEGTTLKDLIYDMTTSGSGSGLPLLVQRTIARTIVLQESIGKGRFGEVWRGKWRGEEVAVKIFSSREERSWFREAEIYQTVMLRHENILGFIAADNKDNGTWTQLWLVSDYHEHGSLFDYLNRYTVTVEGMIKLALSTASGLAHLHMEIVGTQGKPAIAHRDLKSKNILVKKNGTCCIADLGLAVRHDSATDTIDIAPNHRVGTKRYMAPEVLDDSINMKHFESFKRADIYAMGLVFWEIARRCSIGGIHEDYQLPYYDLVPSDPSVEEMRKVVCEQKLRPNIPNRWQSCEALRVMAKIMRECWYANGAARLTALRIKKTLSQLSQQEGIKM
Procedure: Test Example 1: In vitro enzymatic activity inhibition test (TGFβR1).
as §1, with “TGFβR1” for “TGFβR2”, “(1000 nM, 100 nM, 10 nM)” for “(1000nM, 100nM, 10nM)”, “TGFβR1 peptide” for “myelin basic protein (MBP)”, “Chemiluminescence” for “The chemiluminescence”
as §2, with “percent inhibition rate was between” for “percent inhibition was between”

[3] = system: TGFβ/Smads signaling pathway in HEK293-SBE cells; assay: In vitro cell activity inhibition test, Bright-Glo luciferase reporter in HEK293-SBE cells; assay type: cell-based; conditions: TGFβ 0.5 ng/ml, luciferase reporter gene method
Procedure: Test Example 3: In vitro cell activity inhibition test
Experimental method: According to the instructions of Bright-Glo™ luciferase detection kit (Promega), the inhibitory effect of the compounds of the present invention on TGFβ/Smads signaling pathway in HEK293-SBE cells was determined. The steps were as follows: HEK293-SBE cells (Bps bioscience) were added to a 96-well plate (10% FBS medium), 30,000/well, and cultured overnight at 37°C and 5% CO2. The medium was changed to 0.5% FBS medium, and the test compound diluted in 0.5% FBS medium was added. The highest final concentration of the test compound was 10 µM with 4-fold dilution, and a total of 8 concentration gradients. After 4-5 hours of incubation, 10 µl of TGFβ was added. The final concentration of TGFβ was 0.5 ng/ml. 10 µl of medium added in replace of TGFβ was the negative control. In the blank control, no test compound was added, and TGFβ was added. Bright Glo reagent was added to each well, and the chemiluminescence signal value was read on a microplate reader.
The percent inhibition rates of the test compound at different concentrations were plotted against the compound concentrations, the curve was fitted according to the four-parameter model, and the IC50 value was calculated by the following formula: y = Min + (Max - Min) / (1 + (x / IC50) ^ (-Hillslope)), wherein: y is percentage inhibition rate; Max and Min are the maximum and minimum values of the fitted curve, respectively; x is the logarithmic concentration of compound; and Hillslope is the slope of the curve.

TGFβR2, sequence (P37173 23-567): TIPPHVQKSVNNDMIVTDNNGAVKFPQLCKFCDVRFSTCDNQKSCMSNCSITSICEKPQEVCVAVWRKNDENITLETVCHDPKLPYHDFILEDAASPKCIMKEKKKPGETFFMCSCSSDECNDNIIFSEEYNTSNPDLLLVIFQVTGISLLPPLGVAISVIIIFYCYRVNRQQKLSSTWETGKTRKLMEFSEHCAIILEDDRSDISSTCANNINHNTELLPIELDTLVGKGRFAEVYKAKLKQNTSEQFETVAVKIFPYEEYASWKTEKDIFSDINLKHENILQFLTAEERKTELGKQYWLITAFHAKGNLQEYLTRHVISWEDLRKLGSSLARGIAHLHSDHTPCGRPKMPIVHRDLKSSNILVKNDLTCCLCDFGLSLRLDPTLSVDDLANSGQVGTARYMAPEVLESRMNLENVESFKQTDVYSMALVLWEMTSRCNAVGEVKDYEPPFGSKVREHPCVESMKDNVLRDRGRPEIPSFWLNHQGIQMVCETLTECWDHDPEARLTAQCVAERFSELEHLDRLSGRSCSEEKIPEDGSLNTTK

IC50 [1] | IC50 [2] | Compound | IC50 [3]
> 1000 nM | 9.83 ± 4.79 nM | Cc1cccc(-n2nccc2-c2ccn3ncnc3c2)n1 [Example 2, 7-(1-(6-methylpyridin-2-yl)-1H-pyrazol-5-yl)-[1,2,4]triazolo[1,5-a]pyridine] | –
> 1000 nM | 43.8 ± 6.08 nM | Cc1cccc(-n2nccc2-c2ccn3nccc3c2)n1 [Example 3, 5-(1-(6-methylpyridin-2-yl)-1H-pyrazol-5-yl) pyrazolo[1,5-a]pyridine] | 0.0291 ± 0.0025 µM
– | 27.4 ± 4.89 nM | Cc1cc(CNc2cc(-c3ccc4ncsc4c3)n(-c3cccc(C)n3)n2)ccn1 [Example 9, 5-(benzo[d]thiazol-6-yl)-1-(6-methylpyridin-2-yl)-N-((2-methylpyridin-4-yl)methyl)-1H-pyrazol-3-amine] | 0.0432 ± 0.00254 µM
